According to PMC6234229, “The role of loops B and C in determining the potentiation of GABAA receptors by midazolam” (Pharmacology Research & Perspectives, 2018):

Key:
[1] = biological target: α6(P161T)β2γ2 GABAA receptor (Homo sapiens, UniProt P18507+P47870+Q16445, P180T); experiment: Midazolam potentiation of EC10 GABA currents, whole-cell patch clamp, HEK293T; type: cell-based; design: expressed in transfected cells; host or cells: HEK293T; details: for Midazolam potentiation (%): α6(P161T)
Text: (§1) Human (Homo sapiens) GABAA subunits (α1‐6, β2, γ2s) were subcloned into pcDNA3.1+ vectors with a cytomegalovirus (CMV) promoter. The hβ2 and hα3 sequences were humanized rat (Rattus norvegicus) cDNA with amino acid substitutions made to match the human protein sequence. The α1‐3, α5, β2, and γ2s subunits were a generous gift from Neil L. Harrison (Columbia University Medical Center, NY). The α4 subunit was obtained from GenScript (Piscataway, NJ), and the α6 subunit was a generous gift from Robert L. McDonald (Vanderbilt University, TN). All point mutations (listed in Figure 1C) were introduced using the QuikChange Lightening site‐directed mutagenesis kit (Agilent Technologies, Santa Clara, CA) according to the manufacturer's instructions and were confirmed by sequencing (Eurofins MWG Operon, Louisville, KY).
(§2) Human embryonic kidney cells containing the SV40 T‐antigen (HEK293T) were acquired from American Type Culture Collection (ATCC®, Manassas, VA), catalogue number, CRL3216. HEK293T cells were maintained at 37°C and 5% CO2 in Eagle Minimum Essential Medium (MEM) supplemented with 5% fetal bovine serum (Atlanta Biologicals Inc., Flowery Branch, GA), 40 μM L‐glutamine, 100 U/mL penicillin and 0.1 mM streptomycin. Cells were passaged regularly when they reached 70% confluency using trypsin. Cells were not passaged more than 22 times. New cells were revived from frozen stocks at passage 2‐4. Cells used for in vitro electrophysiology experiments were grown on poly‐D‐lysine‐coated glass coverslips (No.2, VWR, Radnor, PA) and transfected with X‐tremeGENE (Roche Diagnostics, Indianapolis, IN) with the desired receptor subunit cDNAs at a 1:1:1 ratio to express αxβ2γ2s receptors (2 μg total cDNA) and with 0.5 μg green fluorescent protein (GFP) as an expression marker. The γ2s incorporation into receptors was tested with zinc inhibition assays regularly.24 Patch clamp experiments were performed on cells at 24‐72 hours post‐transfection. All experiments were performed at 22°C. Experiments consisted of at least five cells recorded per day from at least two transfections across 3‐4 days to control for cell health and transfection efficiency. At least three cells expressing wild‐type receptors were recorded on days that mutant receptors were tested to provide a time‐matched expression control. All reagents were purchased from Sigma‐Aldrich (St. Louis, MO) unless otherwise stated.
(§3) Extracellular solution contained 161 mM NaCl, 3 mM KCl, 1 mM MgCl2, 1.5 mM CaCl2, 10 mM HEPES, and 6 mM D‐glucose, adjusted to pH 7.4 with NaOH (320‐330 mOsm). […] The perfusion system was controlled by protocols written in pClamp 9 (Molecular Devices, LLC., Sunnyvale, CA). Whole‐cell currents were recorded at ‐60 mV, filtered at 100 Hz and sampled at 200 Hz with a MultiClamp 700B amplifier (Molecular Devices, LLC) and DigiData 1322A (Molecular Devices, LLC) digitizer. […] Cells were recorded with the midazolam protocol no more than two times to avoid desensitization and incomplete washout or irreversible modulation.
(§4) Recordings were analyzed using MATLAB (Math Works, Inc., Natick, MA). […] The maximum peak current, EC50 and Hill coefficient were estimated for assays from each cell. When Hill parameters are estimated from whole‐cell recordings, the changes in the parameters across receptor conditions can be ascribed to the following changes in receptor physiology. Changes in maximum current can be due to changes in the single‐channel conductance or the rate of desensitization. Changes in cell surface receptor expression can cause minor changes in maximum current, but are unlikely to occur in the time course of our experimental protocol. […] More often minor changes in the Hill coefficient are attributed to the altered homogeneity in the receptor population expressed by the HEK293T cell. For example, a shallower Hill coefficient could be caused by a shift in the population of receptors from mostly αβγ receptors to a combination of both αβ and αβγ receptors.

[2] = biological target: α6(R100H)β2γ2 GABAA receptor (Homo sapiens, UniProt P18507+P47870+Q16445, R119H); experiment: as above; type: cell-based; design: expressed in transfected cells; host or cells: HEK293T
α6(R100H)β2γ2 GABAA receptor, sequence (Q16445 20-453 R119H): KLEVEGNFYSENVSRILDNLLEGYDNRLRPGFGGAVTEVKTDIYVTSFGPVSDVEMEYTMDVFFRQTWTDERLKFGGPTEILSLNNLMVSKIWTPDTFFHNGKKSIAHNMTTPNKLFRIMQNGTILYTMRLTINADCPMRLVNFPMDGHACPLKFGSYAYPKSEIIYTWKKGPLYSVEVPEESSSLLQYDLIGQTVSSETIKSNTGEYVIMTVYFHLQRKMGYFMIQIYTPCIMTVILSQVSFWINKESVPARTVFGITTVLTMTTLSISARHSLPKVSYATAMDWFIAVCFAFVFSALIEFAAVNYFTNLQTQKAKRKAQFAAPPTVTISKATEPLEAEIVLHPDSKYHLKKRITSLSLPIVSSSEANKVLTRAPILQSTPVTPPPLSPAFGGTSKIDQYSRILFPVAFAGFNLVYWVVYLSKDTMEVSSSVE
α6(R100H)β2γ2 GABAA receptor, sequence (P47870 26-474 isoform P47870-1 limits assumed, stated change not applied): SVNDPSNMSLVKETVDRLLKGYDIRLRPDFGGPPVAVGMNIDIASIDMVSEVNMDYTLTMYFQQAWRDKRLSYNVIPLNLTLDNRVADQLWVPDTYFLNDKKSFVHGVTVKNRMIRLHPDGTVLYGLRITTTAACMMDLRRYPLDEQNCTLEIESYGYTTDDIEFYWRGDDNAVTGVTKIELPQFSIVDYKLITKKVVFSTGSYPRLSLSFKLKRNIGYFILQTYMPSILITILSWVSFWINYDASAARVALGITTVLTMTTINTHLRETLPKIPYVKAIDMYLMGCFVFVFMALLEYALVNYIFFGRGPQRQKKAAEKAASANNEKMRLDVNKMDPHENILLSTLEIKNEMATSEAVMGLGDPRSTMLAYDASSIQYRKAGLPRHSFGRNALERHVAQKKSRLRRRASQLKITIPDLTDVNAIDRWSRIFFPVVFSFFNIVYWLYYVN
α6(R100H)β2γ2 GABAA receptor, sequence (P18507 40-467 isoform P18507-1 limits assumed, stated change not applied): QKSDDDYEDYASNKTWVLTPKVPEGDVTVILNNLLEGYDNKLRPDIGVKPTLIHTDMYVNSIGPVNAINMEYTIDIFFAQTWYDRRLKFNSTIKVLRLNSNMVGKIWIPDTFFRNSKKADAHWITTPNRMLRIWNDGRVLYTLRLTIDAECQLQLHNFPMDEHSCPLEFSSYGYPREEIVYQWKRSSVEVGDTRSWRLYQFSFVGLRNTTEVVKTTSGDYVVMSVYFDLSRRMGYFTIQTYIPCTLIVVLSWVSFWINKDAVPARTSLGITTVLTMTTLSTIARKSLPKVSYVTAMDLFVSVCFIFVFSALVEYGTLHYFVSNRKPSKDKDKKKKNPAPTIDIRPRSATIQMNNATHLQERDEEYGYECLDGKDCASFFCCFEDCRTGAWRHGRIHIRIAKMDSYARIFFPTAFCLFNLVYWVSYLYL
Text: as §1, §2, §3, §4

α6(P161T)β2γ2 GABAA receptor, sequence (Q16445 20-453 P180T): as the sequence (Q16445 20-453 R119H) above, with H100R, P161T counted along it
α6(P161T)β2γ2 GABAA receptor, sequence (P47870 26-474 isoform P47870-1 limits assumed, stated change not applied): as the sequence (P47870 26-474 isoform P47870-1 limits assumed, stated change not applied) above
α6(P161T)β2γ2 GABAA receptor, sequence (P18507 40-467 isoform P18507-1 limits assumed, stated change not applied): as the sequence (P18507 40-467 isoform P18507-1 limits assumed, stated change not applied) above

## Cc1ncc2n1-c1ccc(Cl)cc1C(c1ccccc1F)=NC2 [midazolam]
[1]; 10 nM MDZ + EC10 GABA
  Midazolam potentiation (%): 7.52 ± 3.56%
[1]; 50 nM MDZ + EC10 GABA
  Midazolam potentiation (%): 13.89 ± 3.99%
[1]; 100 nM MDZ + EC10 GABA
  Midazolam potentiation (%): 24.46 ± 3.86%
[1]; 500 nM MDZ + EC10 GABA
  Midazolam potentiation (%): 17.25 ± 3.52%
[1]; 1000 nM MDZ + EC10 GABA
  Midazolam potentiation (%): 16.98 ± 4.08%
[1]; α6(P161T)β2γ2
  responsiveness to midazolam potentiation: failed to confer midazolam responsiveness
[2]
  EC50: 41.9 ± 6.02 nM
[2]; 10 nM MDZ + EC10 GABA, α6(R100H)
  Midazolam potentiation (%): 14.39 ± 8.03%
[2]; 50 nM MDZ + EC10 GABA, α6(R100H)
  Midazolam potentiation (%): 45.91 ± 12.95%
[2]; 100 nM MDZ + EC10 GABA, α6(R100H)
  Midazolam potentiation (%): 71.31 ± 17.31%
[2]; 500 nM MDZ + EC10 GABA, α6(R100H)
  Midazolam potentiation (%): 85.96 ± 19.92%
[2]; 1000 nM MDZ + EC10 GABA, α6(R100H)
  Midazolam potentiation (%): 79.13 ± 19.87%
[2]; α6(R100H), Hill fit, midazolam 10-1000 nM + EC10 GABA
  Max potentiation (%): 93.27 ± 22.84%
[2]; α6(R100H), midazolam Hill fit
  Hill coefficient: 2.310 ± 0.56
